Measurements reported in patent US11649207B2, “Formulations of T-type calcium channel modulators and methods of use thereof” (PRAXIS PRECISION MEDICINES, INC., priority 2019, dated 2023).

System: essential tremor
Assay: Clinical study in essential tremor (TETRAS, accelerometer)
Assay type: in vivo, human
Settings: essential tremor patient, emerging data
Protocol: A clinical study was conducted to investigate the efficacy, safety, and tolerability of the compound of formula (I) in essential tremor. A patient who has been diagnosed with essential tremor completed 3 study periods: Screening, Treatment period (14 days), and Safety follow-up. The patient received a stable dose of 1 tremor medication throughout the clinical trial. The patient received 20 mg of the compound of formula (I) (one tablet of formulation 5) orally once a day for 7 days and 40 mg of the compound of formula (I) (two tablets of 20 mg formulation 5) orally once a day for 7 days (total of 14 days consecutively). Efficacy of the compound of formula (I) on upper limb tremor was assessed by The Essential Tremor Rating Assessment Scale (TETRAS) upper limb score at Baseline, on Day 7, and on Day 14. Efficacy of the compound of formula (I) on other measures of tremor severity was assessed by TETRAS performance subscale score, TETRAS performance individual items, and accelerometer at Baseline, on Day 7, and on Day 14.

CC(C)(C)NC(=O)CN1CCC(CNC(=O)c2cc(F)cc(Cl)c2)CC1 [compound of formula (I)]
tolerability: well tolerated
